Read-outs that look alike come from different tables or passages of the source.
Legend:
LEUCEMIE P388 = assay: Antitumour activity on P388 leukemia implanted i.p. in mice; assay type: in vivo, souris CD2F1
Excerpt: (§1) Les tests d'activité antitumorale ont été conduits au sein du Screening and Pharmacology Group de l'E.O.R.T.C., implanté à l'Institut Mario Negri de Milan.
(§2) Ces essais ont été conduits soit en mono-injection à différentes doses au jour J+1 suivant la greffe de la tumeur, soit en poly-injections chroniques Q1D, soit en protocoles Q4D.
(§3) L'activité antitumorale est mesurée par le rapport T/C %, T (en jours) étant le durée moyenne de vie des souris traitées, C (en jours) étant la durée moyenne de vie des souris témoins.
(§4) L'effet thérapeutique est considéré comme significatif quant T/C % est supérieur ou égal à 125.

[1] = Solubility in water and physiological serum; assay type: physicochemical
Excerpt: La solubilité dans l'eau et dans le sérum physiologique est supérieure à 20 g/l ce qui est donc largement suffisant pour la réalisation de formes injectables.

LEUCEMIE L1210 = assay: Antitumour activity on L1210 leukemia implanted i.p. in mice; assay type: in vivo, souris CD2F1; design: key to T/C (%): Δ: 2 souris mortes avant le 5ème jour, 1 souris au jour 6, 2 souris au jour 16 et la dernière était encore vivante après le 40ème jour
Excerpt: as §1, §2, §3, §4

ERYTH[…] K562 = assay: Growth of human erythroleukemia K562 in vitro; assay type: cell-based, humaine

C(CCN1CCCNP12=NP(N1CC1)(N1CC1)=NP(N1CC1)(N1CC1)=N2)CN1CCCNP12=NP(N1CC1)(N1CC1)=NP(N1CC1)(N1CC1)=N2 (centres unmarked) [SPM]
T/C (%) (LEUCEMIE P388; Tableau 2, inoculation i.p., 100 mg/kg i.p. x 9 (j 1 à 9)): 245%
T/C (%) (LEUCEMIE P388; Tableau 2, inoculation i.p., 150 mg/kg i.p. x 9 (j 1 à 9)): 135%
T/C (%) (LEUCEMIE P388; Tableau 2, inoculation i.p., 200 mg/kg i.p. x 9 (j 1 à 9)): 110%
T/C (%) (LEUCEMIE P388; Tableau 9, 25 mg/kg i.p. x j 1-9): 166%
T/C (%) (LEUCEMIE P388; Tableau 9, 50 mg/kg i.p. x j 1,5,9): 161%
T/C (%) (LEUCEMIE P388; Tableau 9, 50 mg/kg i.p. x j 1-9): 176%
T/C (%) (LEUCEMIE P388; Tableau 9, 100 mg/kg i.p. x j 1): 152%
T/C (%) (LEUCEMIE P388; Tableau 9, 100 mg/kg i.p. x j 1,5,9): 190%
T/C (%) (LEUCEMIE P388; Tableau 9, 100 mg/kg i.p. x j 1-9 (9Q1D)): 260%
T/C (%) (LEUCEMIE P388; Tableau 9, 150 mg/kg i.p. x j 1,5,9): 219%
T/C (%) (LEUCEMIE P388; Tableau 9, 150 mg/kg i.p. x j 1-9): 195%
T/C (%) (LEUCEMIE P388; Tableau 9, 200 mg/kg i.p. x j 1): 166%
T/C (%) (LEUCEMIE P388; Tableau 9, 250 mg/kg i.p. x j 1,5,9 (Q4D)): 285%
T/C (%) (LEUCEMIE P388; Tableau 9, 300 mg/kg i.p. x j 1): 166%
T/C (%) (LEUCEMIE P388; Tableau 9, 400 mg/kg i.p. x j 1): 200%
solubility ([1]; serum, sérum physiologique, read-out: solubilité dans le sérum physiologique): > 20 mg/mL
solubility ([1]; water, eau, read-out: solubilité dans l'eau): > 20 mg/mL
T/C (%) (LEUCEMIE L1210; Tableau 1, 25 mg/kg i.p. x j 1,5,9): 117%
T/C (%) (LEUCEMIE L1210; Tableau 1, 25 mg/kg i.p. x j 1-9): 131%
T/C (%) (LEUCEMIE L1210; Tableau 1, 50 mg/kg i.p. x j 1): 131%
T/C (%) (LEUCEMIE L1210; Tableau 1, 50 mg/kg i.p. x j 1,5,9): 131%
T/C (%) (LEUCEMIE L1210; Tableau 1, 50 mg/kg i.p. x j 1-9): 150%
T/C (%) (LEUCEMIE L1210; Tableau 1, 75 mg/kg i.p. x j 1-9): 140%
T/C (%) (LEUCEMIE L1210; Tableau 1, 100 mg/kg i.p. x j 1): 125%
T/C (%) (LEUCEMIE L1210; Tableau 1, 100 mg/kg i.p. x j 1,5,9): 137%
T/C (%) (LEUCEMIE L1210; Tableau 1, 100 mg/kg i.p. x j 1-9): 140%
T/C (%) (LEUCEMIE L1210; Tableau 1, 150 mg/kg i.p. x j 1-9): 170%
T/C (%) (LEUCEMIE L1210; Tableau 1, 200 mg/kg i.p. x j 1): 156%
T/C (%) (LEUCEMIE L1210; Tableau 1, 200 mg/kg i.p. x j 1,5,9): 159%
T/C (%) (LEUCEMIE L1210; Tableau 1, 300 mg/kg i.p. x j 1): 135%
T/C (%) (LEUCEMIE L1210; Tableau 1, 300 mg/kg i.p. x j 1,5,9): 164%
T/C (%) (LEUCEMIE L1210; Tableau 1, 400 mg/kg i.p. x j 1): 130%
T/C (%) (LEUCEMIE L1210; Tableau 1, 12,5 mg/kg i.p. x j 1-9): 112%
T/C (%) (LEUCEMIE L1210; Tableau 10, 25 mg/kg i.p. x j 1-9): 141%
T/C (%) (LEUCEMIE L1210; Tableau 10, 50 mg/kg i.p. x j 1,5,9): 123%
T/C (%) (LEUCEMIE L1210; Tableau 10, 50 mg/kg i.p. x j 1-9): 152%
T/C (%) (LEUCEMIE L1210; Tableau 10, 100 mg/kg i.p. x j 1): 135%
T/C (%) (LEUCEMIE L1210; Tableau 10, 100 mg/kg i.p. x j 1,5,9): 152%
T/C (%) (LEUCEMIE L1210; Tableau 10, 100 mg/kg i.p. x j 1-9): 170%
T/C (%) (LEUCEMIE L1210; Tableau 10, 150 mg/kg i.p. x j 1,5,9): 176%
T/C (%) (LEUCEMIE L1210; Tableau 10, 150 mg/kg i.p. x j 1-9): 182%
T/C (%) (LEUCEMIE L1210; Tableau 10, 200 mg/kg i.p. x j 1): 147%
T/C (%) (LEUCEMIE L1210; Tableau 10, 250 mg/kg i.p. x j 1,5,9): 194%
T/C (%) (LEUCEMIE L1210; Tableau 10, 300 mg/kg i.p. x j 1): 158%
T/C (%) (LEUCEMIE L1210; Tableau 10, 400 mg/kg i.p. x j 1): Δ
activité sur la leucémie L1210 (result in words) (LEUCEMIE L1210; quel que soit le protocole utilisé): relativement faible
Nombre de cellules x 10^4 (ERYTH[…] K562; 0,01 µg/ml, 24 heures): 20,7 ± 1,7 x 10^4
Nombre de cellules x 10^4 (ERYTH[…] K562; 0,1 µg/ml, 24 heures): 17,8 ± 1,7 x 10^4
Nombre de cellules x 10^4 (ERYTH[…] K562; 0,01 µg/ml, 48 heures): 41,5 ± 1,6 x 10^4
Nombre de cellules x 10^4 (ERYTH[…] K562; 0,1 µg/ml, 48 heures): 37,2 ± 4,5 x 10^4
Nombre de cellules x 10^4 (ERYTH[…] K562; 0,01 µg/ml, 72 heures): 60,7 ± 5,8 x 10^4
Nombre de cellules x 10^4 (ERYTH[…] K562; 0,1 µg/ml, 72 heures): 60,6 ± 5,4 x 10^4
Nombre de cellules x 10^4 (ERYTH[…] K562; 1 µg/ml, 24 heures): 17,8 ± 3,3 x 10^4
Nombre de cellules x 10^4 (ERYTH[…] K562; 1 µg/ml, 48 heures): 36,4 ± 1,8 x 10^4
Nombre de cellules x 10^4 (ERYTH[…] K562; 1 µg/ml, 72 heures): 50,9 ± 4,3 x 10^4
Nombre de cellules x 10^4 (ERYTH[…] K562; 5 µg/ml, 24 heures): 17,3 ± 1,4 x 10^4
